# Experiments:
# [1] = test system: Memory B cells; assay: MAGNIFY-MS peripheral blood immunophenotyping (flow cytometry); format: in vivo, human; details: month 1-12
# [2] = test system: plasmablast/cells; assay: Sustained decrease of plasmablast/cells under Cladribine treatment; format: in vivo, human; details: month 3-12
# Description: According to the instant invention, it is preferably shown that treatment of said autoimmune diseases with DMDs, preferably the treatment of MS with said DMDs and especially treatment of MS with Cladribine, in an individual induces a sustained decrease of pathological memory B cells and plasmablast/cells (>−70% and >−50% from baseline respectively) from month 1-12 and month 3-12 respectively. Repopulation of these cells resulting in a increase of numbers of memory B cells and Plasma cells to <−40% and −20% respectively will illustrate a loss of efficacy serving as a retreatment marker.
# [3] = test system: plasma cells signatures; assay: Immune deconvolution signatures, CLARITY phase 3, 96 weeks; format: in vivo, human; details: 96 weeks after first cladribine treatment
# Description: Plasma cell signatures have weak positive, but significant, correlation with: MACT2 (Mean Active T2 Lesions), CACT2 (Cumulative Active T2 lesions), MRCULES (Mean CU Lesions), MNT1GEL (Mean New T1 Gd+ Lesions). The results are illustrated in FIG. 9.
# [4] = test system: plasma cell numbers in the blood; assay: Plasma cell response in MS patients vaccinated with Shingrix before cladribine treatment; format: in vivo, human; details: MS patients vaccinated twice with Shingrix, second dose 1 week before start of cladribine
# Description: According to the instant invention, it is preferably shown that treatment of treatment of MS with Cladribine, in an individual, reduces short lived plasmablasts and CD38^+ plasma cells and the direct effect on these plasma cell subpopulations is further supported by blood data from MS patients vaccinated twice with the Shingrix vaccine before the start of treatment with the DMD Cladribine. After the second Shingrix dose given 1 week before said start of cladribine treatment, the patient raised an acute plasma cell response, and increased plasma cell numbers in the blood to the MS patient were reduced by cladribine treatment (cite vaccination patent). These findings indicate that Cladribine is able to directly affect and reduce plasmablasts and CD38+ plasma cells which are associated with disease pathology by means of autoantibody production and direct cellular toxicity, especially when occurring within the cerebrospinal fluid. What we found in MS is also important for other diseases. There are a variety of AI & Neuroinflammatory diseases where potentially plasma cells/plasmablasts are involved in the disease activity and disease course which we deem to benefit from a treatment directly acting on plasma cells, preferably cladribine treatment. […]
# [5] = CLARITY extension, five patient groups, 3.5 mg/kg or placebo after CLARITY; cited from earlier work
# [6] = test system: B cell; details: followed by a period of repopulation (Wiendl et al., 2020); cited from earlier work
# [7] = test system: CD4^+ T cell; details: followed by a period of repopulation (Wiendl et al., 2020); cited from earlier work
# [8] = test system: CD8^+ T cell; details: followed by a period of repopulation (Wiendl et al., 2020); cited from earlier work
# [9] = test system: CD27+ memory B cells; details: those with NMOSDs; cited from earlier work
# [10] = test system: CD24hiCD38hi TrB cells; details: those with NMOSDs; cited from earlier work
# [11] = test system: CD19^+ cell; details: Montalban et al., 2016; cited from earlier work
molecule,measurement,setting,value
Nc1nc(Cl)nc2c1ncn2[C@H]1C[C@H](O)[C@@H](CO)O1 [Cladribine],Sustained decrease of pathological memory B cells from baseline,[1],> −70%
same,Sustained decrease of plasmablast/cells from baseline,[2],> −50%
same,Ratio in plasma cells signatures vs untreated control,[3],decreased ratio
same,Increased plasma cell numbers in the blood after second Shingrix dose,[4],reduced
same,Relapse rates and disability between all groups,[5],not significantly different
Alemtuzumab: other disease-modifying therapy compared in the discussion,B cell counts,[6],decrease
same,CD4^+ T cell counts,[7],decrease
same,CD8^+ T cell counts,[8],decrease
Rituximab: anti-CD20 therapy targeting B cells,number of CD27+ memory B cells,[9],lowered
same,number of CD24hiCD38hi TrB cells,[10],increased
ocrelizumab: anti-CD20 therapy targeting B cells,Time of reductions in CD19^+ cell counts after treatment (as early as),[11],2 weeks
